Laboratory results: PMC11459966, “Oral pharmacokinetics and efficacy of oral phospholipid remdesivir nucleoside prodrugs against SARS-CoV-2 in mice” (Antimicrobial Agents and Chemotherapy, 2024)
Read-outs that look alike come from different tables or passages of the source.

Assays:
[1] = test system: SARS-CoV-2 isolate USA-WA1/2020; design: method as in PMID 37040439; conditions: Calu-3, dotted lines of Fig. 2 and 3 ref 7; read-out: in vitro EC90 for SARS-CoV-2 infection in Calu-3 cells; cited from earlier work
A2T2-A549 cells = assay: Cell viability assay (CellTiter-Glo), A2T2-A549; conditions: A2T2-A549, CellTiter-Glo, 48 h incubation
Vero-TMPRSS2 cells = assay: Cell viability assay (CellTiter-Glo), Vero-TMPRSS2; assay type: cell-based, African green monkey; conditions: 48 h incubation
Experimental: Cell viability assays (Table 1) were performed as previously described ([7]). Cells were cultured and seeded as per in vitro antiviral studies in opaque walled 96-well cell culture plates and incubated overnight for Huh7.5, A2T2-A549, and Vero-E6-TMPRSS2 cells and for 2 days for Calu-3 cells. Compounds or controls were added at the indicated concentrations in a total volume of 100 µL, and cells were incubated for 48 h. An equal volume of CellTiter-Glo reagent (Promega, Cat. #G7570) or CellTiter-Glo 2.0 reagent (Promega, Cat. #G9241) was added and mixed, and luminescence was recorded on a Veritas Microplate Luminometer (Turner BioSystems) or a Spark Multimode plate reader (Tecan) according to manufacturer instructions. Percent viability was normalized to DMSO controls, and CC50 values were derived from best fit curves calculated in Prism 10.

Huh7.5 cells = test system: Huh7.5 cells; design: method as in PMID 37040439; conditions: Huh7.5, CellTiter-Glo, previously published, identical conditions ref 7; cited from earlier work
[2] = 5-day oral tolerability study with terminal pharmacokinetics in BALB/c mice; assay type: in vivo; conditions: 80 mg/kg or 100 mg/kg daily PO
Experimental: Fig 3 Oral RVn prodrugs maintain high serum levels after repeated dosing in mice and hamsters. Multiple-dose oral tolerability and pharmacokinetics in mice and Syrian hamsters: (A and B) 5-day oral tolerability study in BALB/c mice with pharmacokinetics obtained after the final dose. Male 20–22 g mice were given the indicated drugs at (A) 80 mg/kg or (B) 100 mg/kg PO daily in 0.1 M sodium carbonate/bicarbonate pH 9 for 5 days. Plasma was obtained after the last dose at 1, 3, 6, and 12 h (In Vivo Technologies, Moffatt Field, CA). (C) 7-day oral tolerability study in Syrian hamsters with pharmacokinetics obtained after the final dose. […] All plasma samples were analyzed to determine prodrug levels (Aliri Bio, Colorado Springs, CO).
After fortification, 50 µL of plasma was crashed with 400 µL of methanol containing 10 ng/mL of the internal standard (V2066). One hundred fifty microliters of the supernatant was removed and diluted with 150 µL of water in a clean 96 well injection plate.
Chromatography for the prodrugs was performed on a Raptor Biphenyl (2.1 × 50) column at a flow rate of 0.5 mL/min. A gradient method starting at 60% B (0.1% formic acid in 90:10 methanol:acetonitrile) for 30 s and then ramping to 95% B over 2.5 min. This composition was held for 1.0 min before being returned to starting conditions and re-equilibration to 40% A (10 mM ammonium formate with 0.2% formic acid in water).
Oral pharmacokinetic studies were carried out at In Vivo Technologies (Moffatt Field, CA) in male BALB/c mice, 22–23 g under IACUC protocol number IVT-11–010Y12 (LifeSource Animal Care and Use Committee). […] Blood was obtained by facial vein or terminal cardiac puncture at the indicated times and plasma was frozen for analysis. Similar procedures were followed for 5-day tolerability and terminal dose pharmacokinetic studies in mice at oral daily doses of 80 or 100 mg/kg.

[3] = test system: SARS-CoV-2 isolate USA-WA1/2020; conditions: for Relative activity vs RVn (RVN EC50/Test Compound EC50) / SI (CC50/EC50): Vero-TMPRSS2; for EC50: read-out: EC50 μM ± SD; for EC50 / EC90: Vero-TMPRSS2 cells, 32 hpi; for EC90: read-out: EC90 μM ± SD
[4] = test system: SARS-CoV-2 isolate USA-WA1/2020; assay: microbe, parasite or virus in culture; assay type: cell-based; conditions: for Relative activity vs RVn (RVN EC50/Test Compound EC50): Calu-3; for EC50 / EC90: Calu-3 cells, 44–48 hpi
[5] = test system: SARS-CoV-2 isolate USA-WA1/2020; conditions: for Relative activity vs RVn (RVN EC50/Test Compound EC50) / SI (CC50/EC50): A2T2-A549; for EC50: read-out: EC50 μM ± SD; for EC50 / EC90: A2T2-A549 cells, 48 hpi; for EC90: read-out: EC90 μM ± SD
[6] = Single dose PO or IV plasma pharmacokinetics and tolerability in BALB/c mice; conditions: BALB/c mice; for tolerability of single escalating oral doses: 20, 60 or 180 mg/kg single oral dose; for F% (oral bioavailability): oral vs IV (7 mg/kg) prodrug exposure, printed on the 20 mg/kg oral lines
[7] = test system: SARS-CoV-2 isolate USA-WA1/2020; conditions: for Relative activity vs RVn (RVN EC50/Test Compound EC50) / SI (CC50/EC50): Huh7.5; for EC50: read-out: EC50 μM ± SD; for EC50 / EC90: Huh7.5 cells, 48 hpi; for EC90: read-out: EC90 μM ± SD
Calu-3 cells = test system: Calu-3 cells; design: method as in PMID 37040439; conditions: Calu-3, CellTiter-Glo, previously published, identical conditions ref 7; cited from earlier work

SMILES: CCCCCCCCCCCCCCCCCCOCC(COP(=O)(O)OC[C@H]1O[C@@](C#N)(c2ccc3c(N)ncnn23)[C@H](O)[C@@H]1O)OCc1ccc(C#N)cc1 (stereo partly shown) [Compound V2067]
- EC90 [1]: 82 nM
- CC50 (A2T2-A549 cells): 82300 nM
- CC50 (Vero-TMPRSS2 cells): 57000 nM
- CC50 (Huh7.5 cells): 47200 nM
- tolerability of once-daily oral doses for 5 days [2]: no adverse clinical effects were noted
- Relative activity vs RVn (RVN EC50/Test Compound EC50) [3]: 23.4×
- SI (CC50/EC50) [3]: 1,239
- EC50 [3]: 0.046 ± 0.014 µM
- EC90 [3]: 0.107 ± 0.02 µM
- Relative activity vs RVn (RVN EC50/Test Compound EC50) [4]: 12.5×
- EC50 [4]: 0.053 ± 0.018 µM
- EC90 [4]: 0.172 ± 0.14 µM
- Relative activity vs RVn (RVN EC50/Test Compound EC50) [5]: 14.1×
- SI (CC50/EC50) [5]: 386
- EC50 [5]: 0.213 ± 0.026 µM
- EC90 [5]: 0.441 ± 0.071 µM
- tolerability of single escalating oral doses [6]: well tolerated with no appreciable adverse effects
- AUC ([6]; IV, 7 mg/kg, plasma): 36.16 µM·h
- Cmax ([6]; IV, 7 mg/kg, plasma): 116 µM
- T1/2 ([6]; IV, 7 mg/kg, plasma): 0.23 h
- AUC ([6]; Oral, 20 mg/kg): 64.70 µM·h
- CL/F ([6]; Oral, 20 mg/kg): 6.22 mL/min/kg
- Cmax ([6]; Oral, 20 mg/kg): 8.83 µM
- T1/2 ([6]; Oral, 20 mg/kg): 4.06 h
- Vd/F ([6]; Oral, 20 mg/kg): 2.18 L/kg
- AUC ([6]; Oral, 60 mg/kg): 154.00 µM·h
- CL/F ([6]; Oral, 60 mg/kg): 7.5 mL/min/kg
- Cmax ([6]; Oral, 60 mg/kg): 24.9 µM
- T1/2 ([6]; Oral, 60 mg/kg): 6.83 h
- Vd/F ([6]; Oral, 60 mg/kg): 4.38 L/kg
- AUC ([6]; Oral, 180 mg/kg): 332.00 µM·h
- CL/F ([6]; Oral, 180 mg/kg): 8.17 mL/min/kg
- Cmax ([6]; Oral, 180 mg/kg): 41 µM
- T1/2 ([6]; Oral, 180 mg/kg): 12.40 h
- Vd/F ([6]; Oral, 180 mg/kg): 8.74 L/kg
- F% (oral bioavailability) [6]: 57.0%
- Relative activity vs RVn (RVN EC50/Test Compound EC50) [7]: 37.7×
- SI (CC50/EC50) [7]: 1,311
- EC50 [7]: 0.036 ± 0.014 µM
- EC90 [7]: 0.096 ± 0.037 µM
- CC50 (Calu-3 cells): 60200 nM

SMILES: CCCCCCCCC=CCCCCCCCCOCC(COP(=O)(O)OCC1OC(C#N)(c2ccc3c(N)ncnn23)C(O)C1O)OCc1ccc(OC)c(F)c1 (stereo not shown) [Compound V2053]
- EC90 [1]: 154 nM
- CC50 (A2T2-A549 cells): > 100000 nM
- CC50 (Vero-TMPRSS2 cells): > 100000 nM
- CC50 (Huh7.5 cells): > 100000 nM
- tolerability of once-daily oral doses for 5 days [2]: no adverse clinical effects were noted
- Relative activity vs RVn (RVN EC50/Test Compound EC50) [3]: 8.0×
- SI (CC50/EC50) [3]: >746
- EC50 [3]: 0.134 ± 0.05 µM
- EC90 [3]: 0.367 ± 0.139 µM
- Relative activity vs RVn (RVN EC50/Test Compound EC50) [4]: 9.0×
- EC50 [4]: 0.074 ± 0.014 µM
- EC90 [4]: 0.153 ± 0.047 µM
- Relative activity vs RVn (RVN EC50/Test Compound EC50) [5]: 7.3×
- SI (CC50/EC50) [5]: >243
- EC50 [5]: 0.41 ± 0.04 µM
- EC90 [5]: 0.811 ± 0.059 µM
- tolerability of single escalating oral doses [6]: well tolerated with no appreciable adverse effects
- AUC ([6]; IV, 7 mg/kg, plasma): 9.58 µM·h
- Cmax ([6]; IV, 7 mg/kg, plasma): 30.2 µM
- T1/2 ([6]; IV, 7 mg/kg, plasma): 0.29 h
- AUC ([6]; Oral, 20 mg/kg): 13.60 µM·h
- CL/F ([6]; Oral, 20 mg/kg): 28 mL/min/kg
- Cmax ([6]; Oral, 20 mg/kg): 1.78 µM
- T1/2 ([6]; Oral, 20 mg/kg): 6.04 h
- Vd/F ([6]; Oral, 20 mg/kg): 14.60 L/kg
- AUC ([6]; Oral, 60 mg/kg): 53.10 µM·h
- CL/F ([6]; Oral, 60 mg/kg): 22.3 mL/min/kg
- Cmax ([6]; Oral, 60 mg/kg): 7.66 µM
- T1/2 ([6]; Oral, 60 mg/kg): 3.44 h
- Vd/F ([6]; Oral, 60 mg/kg): 6.67 L/kg
- AUC ([6]; Oral, 180 mg/kg): 90.80 µM·h
- CL/F ([6]; Oral, 180 mg/kg): 30.2 mL/min/kg
- Cmax ([6]; Oral, 180 mg/kg): 12.5 µM
- T1/2 ([6]; Oral, 180 mg/kg): 7.06 h
- Vd/F ([6]; Oral, 180 mg/kg): 18.50 L/kg
- F% (oral bioavailability) [6]: 51.0%
- Relative activity vs RVn (RVN EC50/Test Compound EC50) [7]: 28.9×
- SI (CC50/EC50) [7]: >2,128
- EC50 [7]: 0.047 ± 0.015 µM
- EC90 [7]: 0.136 ± 0.058 µM
- CC50 (Calu-3 cells): 58700 nM
